According to PubChem BioAssay AID180 (DTP/NCI, 2004):
“And” between values parts separate entries of the source, which are not always exact repeats. Equal values may be shown once.

Test system: BDF1 mice, Adenocarcinoma 755 s.c., tumor weight T/C
Experiment: NCI In Vivo Anticancer Drug Screen. Data for tumor model Adenocarcinoma 755 (subcutaneous) in B6D2F1 (BDF1) mice
Details: endpoint: mean tumor weight, higher = larger tumour
Summary of the method: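 Readout: T/C, i.e. treated-group measurement over vehicle-control measurement. Endpoint is survival or tumor size in tumor-bearing mice given compound.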

[1] = dose: 500.0 mg/kg/injection, schedule: Q01DX011 (ip), vehicle: methylcellulose (MC)

CN(C)N=Nc1ccc(C(=O)NC(CCC(=O)NN)C(=O)NN)cc1 (stereo not drawn)
T/C (dose: 100.0 mg/kg/injection, schedule: Q01DX011 (ip), vehicle: saline): 92 % of control
T/C (dose: 150.0 mg/kg/injection, schedule: Q01DX011 (ip), vehicle: saline): 81 % of control

Clc1cccc(CSc2ncnc3nc[nH]c23)c1
T/C (dose: 3.9 mg/kg/injection, schedule: Q01DX011 (ip), vehicle: methylcellulose (MC)): 56 % of control
T/C (dose: 7.8 mg/kg/injection, schedule: Q01DX011 (ip), vehicle: methylcellulose (MC)): 57 % of control
T/C (dose: 15.6 mg/kg/injection, schedule: Q01DX011 (ip), vehicle: methylcellulose (MC)): 20 % of control
T/C (dose: 31.25 mg/kg/injection, schedule: Q01DX011 (ip), vehicle: methylcellulose (MC)): 3 % of control and 7 % of control
T/C (dose: 62.5 mg/kg/injection, schedule: Q01DX011 (ip), vehicle: methylcellulose (MC)): 5 % of control

COC1=C(N)C(=O)c2nc(-c3nc(C(=O)O)c(C)c(-c4ccc(OC)c(OC)c4O)c3N)ccc2C1=O
T/C (dose: 0.02 mg/kg/injection, schedule: Q01DX011 (ip), vehicle: water): 72 % of control
T/C (dose: 0.04 mg/kg/injection, schedule: Q01DX011 (ip), vehicle: water): 47 % of control
T/C (dose: 0.08 mg/kg/injection, schedule: Q01DX011 (ip), vehicle: water): 55 % of control
T/C (dose: 0.16 mg/kg/injection, schedule: Q01DX011 (ip), vehicle: water): 4 % of control
T/C (dose: 0.25 mg/kg/injection, schedule: Q01DX006 (ip), vehicle: water): 41 % of control
T/C (dose: 0.5 mg/kg/injection, schedule: Q01DX006 (ip), vehicle: water): 10 % of control
T/C (dose: 50.0 micrograms/kg/injection, schedule: Q01DX011 (ip), vehicle: water): 36 % of control
T/C (dose: 75.0 micrograms/kg/injection, schedule: Q01DX011 (ip), vehicle: water): 30 % of control

Cc1ccc2c(c1)CCCN2C(=O)CCCl
T/C (dose: 25.0 mg/kg/injection, schedule: Q01DX011 (ip), vehicle: methylcellulose (MC)): 101 % of control
T/C (dose: 75.0 mg/kg/injection, schedule: Q01DX011 (ip), vehicle: methylcellulose (MC)): 40 % of control
T/C (dose: 225.0 mg/kg/injection, schedule: Q01DX011 (ip), vehicle: methylcellulose (MC)): 60 % of control

Cn1c(=O)c2c(ncn2CC(=O)O)n(C)c1=O
T/C (dose: 63.0 mg/kg/injection, schedule: Q01DX011 (ip), vehicle: methylcellulose (MC)): 106 % of control
T/C (dose: 125.0 mg/kg/injection, schedule: Q01DX011 (ip), vehicle: methylcellulose (MC)): 89 % of control
T/C (dose: 250.0 mg/kg/injection, schedule: Q01DX011 (ip), vehicle: methylcellulose (MC)): 112 % of control
T/C [1]: 117 % of control

Cc1ccc(C(=O)OCC2OC(n3cnc4c(=S)nc(N)[nH]c43)C(OC(=O)c3ccc(C)cc3)C2OC(=O)c2ccc(C)cc2)cc1 (stereo not drawn)
T/C (dose: 100.0 mg/kg/injection, schedule: Q01DX011 (ip), vehicle: carboxymethylcellulose (CMC)): 81 % of control
T/C (dose: 200.0 mg/kg/injection, schedule: Q01DX011 (ip), vehicle: carboxymethylcellulose (CMC)): 4 % of control and 12 % of control

CC[C@H](c1ccc(O)cc1)[C@@H](CC)c1ccc(O)cc1
T/C (dose: 55.0 mg/kg/injection, schedule: Q01DX011 (sc), vehicle: steriod suspending solution): 44 % of control

C=CCC1(CCC)C(=O)NC(=O)NC1=O
T/C (dose: 17.5 mg/kg/injection, schedule: Q01DX011 (ip), vehicle: methylcellulose (MC)): 79 % of control and 86 % of control
T/C (dose: 70.0 mg/kg/injection, schedule: Q01DX011 (ip), vehicle: methylcellulose (MC)): 23 % of control and 41 % of control
T/C (dose: 140.0 mg/kg/injection, schedule: Q01DX011 (ip), vehicle: methylcellulose (MC)): 42 % of control

OCC1OC(n2cnc3c(Cl)ncnc32)C(O)C1O (stereo not drawn)
T/C (dose: 62.5 mg/kg/injection, schedule: Q01DX011 (ip), vehicle: carboxymethylcellulose (CMC)): 153 % of control
T/C (dose: 100.0 mg/kg/injection, schedule: Q01DX011 (ip), vehicle: methylcellulose (MC)): 72 % of control
T/C (dose: 125.0 mg/kg/injection, schedule: Q01DX011 (ip), vehicle: carboxymethylcellulose (CMC)): 63 % of control
T/C (dose: 200.0 mg/kg/injection, schedule: Q01DX011 (ip), vehicle: methylcellulose (MC)): 78 % of control
T/C (dose: 250.0 mg/kg/injection, schedule: Q01DX011 (ip), vehicle: carboxymethylcellulose (CMC)): 55 % of control
T/C (dose: 300.0 mg/kg/injection, schedule: Q01DX011 (ip), vehicle: methylcellulose (MC)): 90 % of control
T/C (dose: 400.0 mg/kg/injection, schedule: Q01DX011 (ip), vehicle: methylcellulose (MC)): 63 % of control
T/C [1]: 11 % of control
T/C (dose: 750.0 mg/kg/injection, schedule: Q01DX011 (ip), vehicle: methylcellulose (MC)): 4 % of control
T/C (dose: 1000.0 mg/kg/injection, schedule: Q01DX011 (ip), vehicle: methylcellulose (MC)): 15 % of control
